Experimental data from PubChem BioAssay AID304 (DTP/NCI, 2004).
“And” between values parts separate entries of the source, which are not always exact repeats. Identical values can stand only once. Inconclusive results and toxic doses are left out. Starred links: 1 amine or outer side, 2 acyl side, 3 side chain; linkers in the order of their positions; H or OH if unused. Positions of bridges follow the written chain, without caps; N, C: chain ends. Non-standard residues stand in square brackets, D forms with d. Residues, ends and D or L forms follow the SMILES beside them. Chains are numbered I, II in the order given. Actinocin(9to1) = Cc1c2oc3c(C)ccc(C(=O)[*:1])c3nc-2c(C(=O)[*:2])c(N)c1=O; aThr = C[C@H](O)[C@H](N)C(=O)O; NMeV = CN[C@H](C(=O)O)C(C)C; Sar = CNCC(=O)O

System: Lymphosarcoma Mecca ip in C3AKF1 mice, survival T/C%
Assay: NCI In Vivo Anticancer Drug Screen. Data for tumor model Lymphosarcoma Mecca (intraperitoneal) in C3AKF1 (CHKRF1) mice
Conditions: endpoint: survival time, mean or median, schedule: Q01DX010 (ip), higher = longer survival
Protocol: The antitumor activity of compounds was measured in mice bearing transplantable tumors. Survival or tumor size were measured and the results are expressed as the measurement made in the treated group (T) divided by the measurement made in the vehicle treated control group (C). The tumor model used in this assay is Lymphosarcoma Mecca (intraperitoneal) in C3AKF1 (CHKRF1) mice

[1] = dose: 125.0 mg/kg/injection, vehicle: saline

## CCOC(N)=O
[1]
  T/C: 90 % of control and 104 % of control
dose: 250.0 mg/kg/injection, vehicle: saline
  T/C: 86 % of control and 95 % of control
dose: 500.0 mg/kg/injection, vehicle: saline
  T/C: 95 % of control and 122 % of control

## COC(=O)[C@@H]1c2cc3c(c(O)c2[C@@H](OC2OC(C)C(OC)C(C)(OC)C2OC)C[C@]1(C)O)C(=O)c1c(O)cc2c(c1C3=O)O[C@H]1O[C@]2(C)[C@H](O)[C@@H](N(C)C)[C@@H]1O (some centres not stated)
dose: 125.0 micrograms/kg/injection, vehicle: saline
  T/C: 95 % of control and 100 % of control
dose: 250.0 micrograms/kg/injection, vehicle: saline
  T/C: 110 % of control
dose: 500.0 micrograms/kg/injection, vehicle: saline
  T/C: 100 % of control and 105 % of control

## N#CCSc1ncnc2nc[nH]c12
dose: 15.0 mg/kg/injection, vehicle: saline
  T/C: 95 % of control and 119 % of control
dose: 30.0 mg/kg/injection, vehicle: saline
  T/C: 90 % of control and 95 % of control
dose: 60.0 mg/kg/injection, vehicle: saline
  T/C: 90 % of control and 95 % of control
dose: 120.0 mg/kg/injection, vehicle: saline
  T/C: 95 % of control

## CCn1cnc2c(=S)nc[nH]c21
dose: 15.6 mg/kg/injection, vehicle: saline
  T/C: 100 % of control
dose: 31.3 mg/kg/injection, vehicle: saline
  T/C: 100 % of control
dose: 62.5 mg/kg/injection, vehicle: saline
  T/C: 90 % of control
[1]
  T/C: 100 % of control

## Cc1c2oc3c(C)ccc(C(=O)N[C@@H]4C(=O)N[C@H](C(C)C)C(=O)N5CCC[C@H]5C(=O)N(C)CC(=O)N(C)[C@@H](C(C)C)C(=O)O[C@H]4C)c3nc-2c(C(=O)N[C@@H]2C(=O)N[C@H](C(C)C)C(=O)N3CCC[C@H]3C(=O)N(C)CC(=O)N(C)[C@@H](C(C)C)C(=O)O[C@H]2C)c(N)c1=O (I: [aThr][dV]P[Sar][NMeV] / II: [aThr][dV]P[Sar][NMeV]; ester I:1-I:C, II:1-II:C; linker I:N-II:N via Actinocin(9to1))
dose: 13.0 micrograms/kg/injection, vehicle: acid diluted with saline
  T/C: 183 % of control
dose: 25.0 micrograms/kg/injection, vehicle: acid diluted with saline
  T/C: 103 % of control
dose: 50.0 micrograms/kg/injection, vehicle: acid diluted with saline
  T/C: 123 % of control
